Test results reported in patent US12545685B2 (Daiichi Sankyo Company, Limited, priority 2011, dated 2026).

Assays:
[1] = test system: human lung cancer-derived cell line NCI-H460 having wild-type p53; test: Cell growth inhibition assay (MTT); format: cell-based; conditions: 72 h, NCI-H460 cells, 3 days culture, values given as ranges, read-out: 50% growth inhibition concentration (GI50 value)
How it was run: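 NCI-H460 cells (wild-type p53) seeded at 500 cells/well in RPMI1640 with 10% FBS, then treated the next day and grown 3 days at 37 °C. MTT read-out at OD 540 nm (660 nm reference), taken at dosing and at day 3. GI50 derived from T/C (%) dose-response curves.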

[2] = molecular target: T1, Mdm2/p53 binding (GST-Mdm2 / His-p53) (Homo sapiens, UniProt Q00987, L33E); test: Mdm2/p53 binding assay (HTRF, His-p53 and GST-Mdm2); conditions: His-p53 (aa 1-132) and GST-Mdm2 (aa 25-108, L33E) 6.25 nM each; 25°C, 1 hour; values given as ranges
T1 construct: Mdm2 partial protein having Mdm2 amino acids at positions 25 to 108
T1 sequence (Q00987 25-108 L33E): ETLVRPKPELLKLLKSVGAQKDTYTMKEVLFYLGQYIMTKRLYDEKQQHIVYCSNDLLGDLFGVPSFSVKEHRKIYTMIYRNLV
How it was run: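 Binding was detected by HTRF (ex 320 nm, em 620/665 nm) after 1 h at 25 °C, using Eu-cryptate anti-GST and XL665 anti-His antibodies. The protein pair was GST-Mdm2 (residues 25–108, L33E) with His-p53 (residues 1–132), each 6.25 nM in the protein dilution. T/C used no-compound control and no-p53 background, and IC50 came from sigmoid fitting.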

Row | Structure (SMILES) | GI50 [1] [nM] | IC50 [2] [nM]
1 | CC1(C)CCC2(CC1)N[C@@H](C(=O)N[C@@H]1CC[C@@H](CO)OC1)[C@H](c1cccc(Cl)c1F)[C@]21C(=O)Nc2nc(Cl)ccc21 [Example 3, (3′R, 4′S,5′R)-6″-chloro-4′-(3-chloro-2-fluorophenyl)-N-[(3R,6S)-6-(hydroxymethyl)tetrahydro-2H-pyran-3-yl]-4,4-dimethyl-2″-oxo-1″,2″-dihydrodispiro[cyclohexane-1,2′-pyrrolidine-3′,3″-pyrrolo[2,3-b]pyridine]-5′-carboxamide] | 500 to 1000 | 1 to 50
2 | CC1(C)CCC2(CC1)N[C@@H](C(=O)N[C@H]1CC[C@H](CO)CC1)[C@H](c1cccc(Cl)c1F)[C@]21C(=O)Nc2nc(Cl)ccc21 (relative stereo) [Example 2, (3′R, 4′S,5′R)-6″-chloro-4′-(3-chloro-2-fluorophenyl)-N-[trans-4-(hydroxymethyl)cyclohexyl]-4,4-dimethyl-2″-oxo-1″,2″-dihydrodispiro[cyclohexane-1,2′-pyrrolidine-3′,3″-pyrrolo[2,3-b]pyridine]-5′-carboxamide] | 1000 to 5000 | 50 to 100
3 | CC1(C)CCC2(CC1)N[C@@H](C(=O)N[C@@H]1CC[C@@H](c3nnco3)OC1)[C@H](c1ccnc(Cl)c1)[C@]21C(=O)Nc2cc(Cl)ccc21 [Example 53, (3′R, 4′R, 5′R)-6″-chloro-4′-(2-chloropyridin-4-yl)-4,4-dimethyl-N-[(3R,6S)-6-(1,3,4-oxadiazol-2-yl)tetrahydro-2-pyran-3-yl]-2″-oxo-1″,2″-dihydrodispiro[cyclohexane-1,2′-pyrrolidine-3′,3″-indole]-5′-carboxamide] | 500 to 1000 | 1 to 50
4 | CC1(C)CCC2(CC1)N[C@@H](C(=O)N[C@H]1CC[C@H](c3nnco3)CC1)[C@H](c1cccc(Cl)c1F)[C@]21C(=O)Nc2nc(Cl)ccc21 (relative stereo) [Example 5, (3′R, 4′S,5′R)-6″-chloro-4′-(3-chloro-2-fluorophenyl)-4,4-dimethyl-N-[trans-4-(1,3,4-oxadiazol-2-yl)cyclohexyl]-2″-oxo-1″,2″-dihydrodispiro[cyclohexane-1,2′-pyrrolidine-3′,3″-pyrrolo[2,3-b]pyridine]-5′-carboxamide] | 1000 to 5000 | 50 to 100
5 | O=C(N[C@@H]1CC[C@@H](CO)OC1)[C@@H]1NC2(CC(CF)(CF)C2)[C@@]2(C(=O)Nc3cc(Cl)ccc32)[C@H]1c1cc(F)cc(Cl)c1 [Example 164, (3′R, 4′R, 5′R)-6″-chloro-4′-(3-chloro-5-fluorophenyl)-3,3-bis(fluoromethyl)-N-[(3R,6S)-6-(hydroxymethyl)tetrahydro-2H-pyran-3-yl]-2″-oxo-1″,2″-dihydrodispiro[cyclobutane-1,2′-pyrrolidine-3′,3″-indole]-5′-carboxamide] | 1000 to 5000 | 100 to 500
6 | CN(C)C(=O)[C@H]1C[C@H](NC(=O)[C@@H]2NC3(CCC(C)(C)CC3)[C@@]3(C(=O)Nc4cc(Cl)ccc43)[C@H]2c2ccnc(Cl)c2F)C1 [Example 115, (3′R, 4′S,5′R)-6″-chloro-4′-(2-chloro-3-fluoropyridin-4-yl)-N-[trans-3-(dimethylcarbamoyl)cyclobutyl]-4,4-dimethyl-2″-oxo-1″,2″-dihydrodispiro[cyclohexane-1,2′-pyrrolidine-3′,3″-indole]-5′-carboxamide] | 100 to 500 | 1 to 50
7 | CC1(C)CCC2(CC1)N[C@@H](C(=O)N[C@@H]1CC[C@@H](CO)OC1)[C@H](c1ccnc(Cl)c1)[C@]21C(=O)Nc2cc(Cl)ccc21 [Example 13, (3′R, 4′R, 5′R)-6″-chloro-4′-(2-chloropyridin-4-yl)-N-[(3R,6S)-6-(hydroxymethyl)tetrahydro-2H-pyran-3-yl]-4,4-dimethyl-2″-oxo-1″,2″-dihydrodispiro[cyclohexane-1,2′-pyrrolidine-3′,3″-indole]-5′-carboxamide] | 100 to 500 | 1 to 50
8 | CC(C)NC(=O)[C@@H]1CC[C@@H](NC(=O)[C@@H]2NC3(CCC(C)(C)CC3)[C@@]3(C(=O)Nc4cc(Cl)ccc43)[C@H]2c2ccnc(Cl)c2F)CO1 [Example 96, (3′R, 4′S,5′R)-6″-chloro-4′-(2-chloro-3-fluoropyridin-4-yl)-N-[(3R,6S)-6-(isopropylcarbamoyl)tetrahydro-2H-pyran-3-yl]-4,4-dimethyl-2′-oxo-1″,2″-dihydrodispiro[cyclohexane-1,2′-pyrrolidine-3′,3″-indole]-5′-carboxamide] | 100 to 500 | 50 to 100

Further lines, results first:

Row | GI50 [1] [nM] | IC50 [2] [nM] | Structure (SMILES)
9 | 100 to 500 | 1 to 50 | CC1(C)CCC2(CC1)N[C@@H](C(=O)N[C@@H]1CC[C@@H](C(=O)NC3CC3)OC1)[C@H](c1ccnc(Cl)c1F)[C@]21C(=O)Nc2cc(Cl)ccc21 [Example 97, (3′R, 4′S,5′R)-6″-chloro-4′-(2-chloro-3-fluoropyridin-4-yl)-N-[(3R,6S)-6-(cyclopropylcarbamoyl)tetrahydro-2H-pyran-3-yl]-4,4-dimethyl-2″-oxo-1″,2″-dihydrodispiro[cyclohexane-1,2′-pyrrolidine-3′,3″-indole]-5′-carboxamide]
10 | 100 to 500 | 1 to 50 | CC1(C)CCC2(CC1)N[C@@H](C(=O)N[C@@H]1CC[C@@H](C(N)=O)OC1)[C@H](c1cccc(Cl)c1F)[C@]21C(=O)Nc2cc(Cl)ncc21 [Example 185, (3′R, 4′S,5′R)—N-[(3R,6S)-6-carbamoyltetrahydro-2H-pyran-3-yl]-6″-chloro-4′-(3-chloro-2-fluorophenyl)-4,4-dimethyl-2″-oxo-1″,2″-dihydrodispiro[cyclohexane-1,2-pyrrolidine-3′,3″-pyrrolo[3,2-c]pyridine]-5′-carboxamide]
11 | < 100 | 1 to 50 | CCN(CC)C(=O)[C@@H]1CC[C@@H](NC(=O)[C@@H]2NC3(CCC(C)(C)CC3)[C@@]3(C(=O)Nc4cc(Cl)ccc43)[C@H]2c2ccnc(Cl)c2F)CO1 [Example 116, (3′R, 4′S,5′R)-6″-chloro-4′-(2-chloro-3-fluoropyridin-4-yl)-N-[(3R,6S)-6-(diethylcarbamoyl)tetrahydro-2H-pyran-3-yl]-4,4-dimethyl-2″-oxo-1″,2″-dihydrodispiro[cyclohexane-1,2′-pyrrolidine-3′,3″-indole]-5′-carboxamide]
12 | < 100 | 1 to 50 | CN(C)C(=O)[C@@H]1CC[C@@H](NC(=O)[C@@H]2NC3(CCC(C)(C)CC3)[C@@]3(C(=O)Nc4cc(Cl)ccc43)[C@H]2c2ccnc(Cl)c2F)CO1 [Example 100, (3′R, 4′S,5′R)-6″-chloro-4′-(2-chloro-3-fluoropyridin-4-yl)-N-[(3R,6S)-6-(dimethylcarbamoyl)tetrahydro-2H-pyran-3-yl]-4,4-dimethyl-2″-oxo-1″,2″-dihydrodispiro[cyclohexane-1,2′-pyrrolidine-3′,3′″-indole]-5′-carboxamide]
13 | < 100 | 1 to 50 | CN(C)C(=O)[C@H]1CC[C@H](NC(=O)[C@@H]2NC3(CCC(C)(C)CC3)[C@@]3(C(=O)Nc4cc(Cl)ccc43)[C@H]2c2ccnc(Cl)c2F)CC1 [Example 113, (3′R, 4′S,5′R)-6″-chloro-4′-(2-chloro-3-fluoropyridin-4-yl)-N-[trans-4-(dimethylcarbamoyl)cyclohexyl]-4,4-dimethyl-2″-oxo-1″,2″-dihydrodispiro[cyclohexane-1,2′-pyrrolidine-3′,3″-indole]-5′-carboxamide]
14 | 100 to 500 | 50 to 100 | CC1(C)CCC2(CC1)N[C@@H](C(=O)NC1CC3(C1)CC(CO)(CO)C3)[C@H](c1ccnc(Cl)c1F)[C@]21C(=O)Nc2cc(Cl)ccc21 [Example 162, (3′R, 4′S,5′R)—N-[6,6-bis(hydroxymethyl)spiro[3.3]hepta-2-yl]-6″-chloro-4′-(2-chloro-3-fluoropyridin-4-yl)-4,4-dimethyl-2′-oxo-1″,2″-dihydrodispiro[cyclohexane-1,2′-pyrrolidine-3′,3″-indole]-5′-carboxamide]
15 | 100 to 500 | 50 to 100 | CCNC(=O)[C@@H]1CC[C@@H](NC(=O)[C@@H]2NC3(CCC(C)(C)CC3)[C@@]3(C(=O)Nc4cc(Cl)ccc43)[C@H]2c2ccnc(Cl)c2F)CO1 [Example 88, (3′R, 4′S,5′R)-6″-chloro-4′-(2-chloro-3-fluoropyridin-4-yl)-N-[(3R,6S)-6-(ethylcarbamoyl)tetrahydro-2H-pyran-3-yl]-4,4-dimethyl-2″-oxo-1″,2″-dihydrodispiro[cyclohexane-1,2′-pyrrolidine-3′,3″-indole]-5′-carboxamide]
16 | 100 to 500 | 50 to 100 | CC1(C)CCC2(CC1)N[C@@H](C(=O)N[C@H]1CC[C@H](NC(=O)CO)CC1)[C@H](c1cccc(Cl)c1F)[C@]21C(=O)Nc2cc(Cl)ccc21 (relative stereo) [Example 24, (3′R, 4′S,5′R)-6″-chloro-4′-(3-chloro-2-fluorophenyl)-N-{trans-4-[(hydroxyacetyl)amino]cyclohexyl}-4,4-dimethyl-2″-oxo-1″,2″-dihydrodispiro[cyclohexane-1,2′-pyrrolidine-3′,3″-indole]-5′-carboxamide]
17 | 100 to 500 | 50 to 100 | CC1(C)CCC2(CC1)N[C@@H](C(=O)N[C@@H]1CC[C@@H](C(C)(C)O)OC1)[C@H](c1ccnc(Cl)c1F)[C@]21C(=O)Nc2cc(Cl)ccc21 [Example 17, (3′R, 4′S,5′R)-6″-chloro-4′-(2-chloro-3-fluoropyridin-4-yl)-N-[(3R,6S)-6-(1-hydroxy-1-methylethyl)tetrahydro-2H-pyran-3-yl]-4,4-dimethyl-2″-oxo-1″,2″-dihydrodispiro[cyclohexane-1,2′-pyrrolidine-3′,3″-indole]-5′-carboxamide]
